Reference: PMC7796460, “Relation of Metal-Binding Property and Selective Toxicity of 8-Hydroxyquinoline Derived Mannich Bases Targeting Multidrug Resistant Cancer Cells” (Cancers, 2021)
Where two headings read alike, the source gives them in different places.

Key:
[1] = pKa by UV-visible spectrophotometric titrations; assay type: physicochemical; conditions: T = 25 °C, I = 0.2 M (KCl); for pKa: 0.2 M KCl (ionic strength)
MES-SA/Dx5 cells [2] = test: MTT viability assay, MES-SA/Dx5; assay type: cell-based, human; conditions: for IC50: read-out: MES-SA/Dx5 (toxicity, Table 2)
Excerpt: (§1) MDCK II canine kidney cells, A431 epidermoid carcinoma cells, the human uterine sarcoma cell lines MES-SA and the doxorubicin selected MES-SA-Dx5 were obtained from ATCC (MDCK II: No. CRL-2936™, A431: No. CRL-1555™, MES-SA: No. CRL-1976™, MES-SA/Dx5: No. CRL-1977™). ABCB1 was expressed in A431 and MES-SA cells using lentiviral transduction. The human cervix carcinoma cell line KB-3-1 and the vinblastine selected KB-v1were kind gifts from Dr. Michael M. Gottesman, National Institutes of Health. The phenotype of the resistant cells was verified using cytotoxicity assays. MDCK-B1 and MDCK-MM were established by the Sleeping Beauty transposon-based gene delivery system. OVCAR-8 and NCI-ADRres cells (obtained from the Division of Cancer Treatment and Diagnosis (DCTD) Tumor Repository (National Cancer Institute, Frederick, MD, USA)) were cultivated in RPMI-1640 (Sigma Aldrich, Budapest, Hungary), and other cell lines were cultivated in Dulbecco’s Modified Eagle Medium (DMEM, Sigma Aldrich, Budapest, Hungary), supplemented with 10% fetal bovine serum, 5 mM glutamine, and 50 unit/mL penicillin and streptomycin (Life Technologies, Carlsbad, CA, USA). All cell lines were cultivated at 37 °C, 5% CO2.
(§2) MTT viability assays were performed as described earlier with minor modifications. Briefly, cells were seeded into 96-well tissue culture plates (Sarstedt, Newton, NC, USA/Orange, Braine-l’Alleud, Belgium) at a density of 5000 cells/well and allowed to attach overnight. Test compounds were added to achieve the required final concentration in a final volume of 100 µL per well. After an incubation period of 72 h, the supernatant was removed and fresh medium containing the MTT reagent (0.083 mg/mL) was added. Incubation with MTT at 37 °C was terminated after 1 h by removing the supernatant and lysing the cells with 100 µL DMSO per well. Viability of the cells was measured spectrophotometrically based on the absorbance values at 540 nm using either a Perkin Elmer Victor X3 or an EnSpire microplate reader. Data were background corrected by subtraction of the signal obtained from unstained cell lysates and normalized to untreated cells. Curves were fitted by Prism software (GraphPad Software Inc., San Diego, CA, USA) using the sigmoidal dose-response model (comparing variable and fixed slopes). […] Significance was calculated using unpaired t-tests; results are given as *: p ≤ 0.05, **: p ≤ 0.01, ***: p ≤ 0.001, ****: p ≤ 0.0001.

MES-SA cells [3] = test: MTT viability assay, MES-SA; assay type: cell-based, human; conditions: Table 2, value outside brackets, read-out: MES-SA (toxicity, Table 2)
Excerpt: as §1, §2

MES-SA cells [4] = test: ROS determination with DCFDA, MES-SA; assay type: cell-based, human; conditions: 2 h
Method: (§3) Measurements were performed as described earlier. Briefly, cells were harvested, washed with PBS, and incubated with 10 µM DCFDA in a water bath shaker at 37 °C for 30 min in a density of 3 × 10^6 cells/mL. After washing with PBS, cells were seeded to 96-well plates in PBS in a density of 2 × 10^4 cells/well. Following the measurement of the basal fluorescence, test compounds were added in different concentrations and the fluorescence of the samples was followed at time intervals of 10 min. DCFDA solution in buffer was used as a cell free control to test for interaction of the test compounds with DCFDA. Data were analyzed as fold change of fluorescence compared to basal levels and untreated cells. Significance was calculated using unpaired t-tests; results are given as *: p ≤ 0.05, **: p ≤ 0.01, ***: p ≤ 0.001, ****: p ≤ 0.0001.
(§4) Table S3: Characterization of intracellular ROS production with the DCFDA assay for P -gp negative MES-SA and P-gp positive MES-SA/Dx5 cells. Fold changes in fluorescence are shown after a 2 h with the investigated 8 -hydroxyquinoline ligands. Data S-refer to Figure 7 and allow […]
(§5) concentration range from 6.25µ M to 50µ M. Fold change of fluorescence obtained in the presence of 5 mM NAC is given in brackets.

MES-SA/Dx5 cells [5] = test: ROS determination with DCFDA, MES-SA/Dx5; assay type: cell-based, human; conditions: 2 h
Method: as §3, §4, §5

[6] = group named in the cell (NmorpholiniumH+, NpiperidiniumH+, NbenzylamineH2+), read-out: pKa (additional)
[7] = Homo sapiens, MES-SA/Dx5, Table 2, value outside brackets
[8] = Table 2, value outside brackets
[9] = Table 2, value in brackets (Tariquidar as in Table 1)
[10] = 6.25 µM, presence of 5 mM NAC (brackets)
[11] = 12.5 µM, presence of 5 mM NAC (brackets)
[12] = 25 µM, presence of 5 mM NAC (brackets)
[13] = 50 µM, presence of 5 mM NAC (brackets)
[14] = MES-SA/Dx5, 6.25 µM, presence of 5 mM NAC (brackets)
[15] = MES-SA/Dx5, 12.5 µM, presence of 5 mM NAC (brackets)
[16] = MES-SA/Dx5, 25 µM, presence of 5 mM NAC (brackets)
[17] = MES-SA/Dx5, 50 µM, presence of 5 mM NAC (brackets)

pKa [1, 6]	pKa ([1]; read-out: pKa (OH))	Compound	IC50 (MES-SA/Dx5 cells [2]; [7])	SR MES-SA/Dx5 (Table 2) (MES-SA/Dx5 cells [2]; [8])	IC50 (MES-SA cells [3]; Homo sapiens, MES-SA)	SR MES-SA/Dx5 (Table 2) (MES-SA/Dx5 cells [2]; [9])	Fold change in fluorescence (DCFDA) (MES-SA cells [4]; 6.25 µM)	Fold change in fluorescence (DCFDA) (MES-SA cells [4]; [10])	Fold change in fluorescence (DCFDA) (MES-SA cells [4]; 12.5 µM)	Fold change in fluorescence (DCFDA) (MES-SA cells [4]; [11])	Fold change in fluorescence (DCFDA) (MES-SA cells [4]; 25 µM)	Fold change in fluorescence (DCFDA) (MES-SA cells [4]; [12])	Fold change in fluorescence (DCFDA) (MES-SA cells [4]; 50 µM)	Fold change in fluorescence (DCFDA) (MES-SA cells [4]; [13])	Fold change in fluorescence (DCFDA) (MES-SA/Dx5 cells [5]; MES-SA/Dx5, 6.25 µM)	Fold change in fluorescence (DCFDA) (MES-SA/Dx5 cells [5]; [14])	Fold change in fluorescence (DCFDA) (MES-SA/Dx5 cells [5]; MES-SA/Dx5, 12.5 µM)	Fold change in fluorescence (DCFDA) (MES-SA/Dx5 cells [5]; [15])	Fold change in fluorescence (DCFDA) (MES-SA/Dx5 cells [5]; MES-SA/Dx5, 25 µM)	Fold change in fluorescence (DCFDA) (MES-SA/Dx5 cells [5]; [16])	other results
6.61 ± 0.02	9.21 ± 0.02	Oc1c(CN2CCOCC2)ccc2ccccc12 [NC-2, 2-(morpholino-methyl)naphthalen-1-ol]	562 ± 36.8 µM	0.75	422 ± 34.9 µM																
10.12 ± 0.01	6.06 ± 0.01	Oc1c(CN2CCCCC2)ccc2ccccc12 [NC-3, 2-(piperidin-1-ylmethyl)naphthalen-1-ol]	163 ± 16.6 µM	0.86	140 ± 47.9 µM																
9.72 ± 0.02	5.5 ± 0.02	Oc1c(CNCc2ccccc2F)ccc2ccccc12 [NC-4, 2-((2-fluorobenzylamino)methyl)naphthalen-1-ol]	31.1 ± 2.17 µM	1.44	44.7 ± 4.52 µM																

Continued, compound first:

Compound	pKa [1, 6]	pKa ([1]; read-out: pKa (OH))	IC50 (MES-SA/Dx5 cells [2]; [7])	SR MES-SA/Dx5 (Table 2) (MES-SA/Dx5 cells [2]; [8])	IC50 (MES-SA cells [3]; Homo sapiens, MES-SA)	SR MES-SA/Dx5 (Table 2) (MES-SA/Dx5 cells [2]; [9])	Fold change in fluorescence (DCFDA) (MES-SA cells [4]; 6.25 µM)	Fold change in fluorescence (DCFDA) (MES-SA cells [4]; [10])	Fold change in fluorescence (DCFDA) (MES-SA cells [4]; 12.5 µM)	Fold change in fluorescence (DCFDA) (MES-SA cells [4]; [11])	Fold change in fluorescence (DCFDA) (MES-SA cells [4]; 25 µM)	Fold change in fluorescence (DCFDA) (MES-SA cells [4]; [12])	Fold change in fluorescence (DCFDA) (MES-SA cells [4]; 50 µM)	Fold change in fluorescence (DCFDA) (MES-SA cells [4]; [13])	Fold change in fluorescence (DCFDA) (MES-SA/Dx5 cells [5]; MES-SA/Dx5, 6.25 µM)	Fold change in fluorescence (DCFDA) (MES-SA/Dx5 cells [5]; [14])	Fold change in fluorescence (DCFDA) (MES-SA/Dx5 cells [5]; MES-SA/Dx5, 12.5 µM)	Fold change in fluorescence (DCFDA) (MES-SA/Dx5 cells [5]; [15])	Fold change in fluorescence (DCFDA) (MES-SA/Dx5 cells [5]; MES-SA/Dx5, 25 µM)	Fold change in fluorescence (DCFDA) (MES-SA/Dx5 cells [5]; [16])	other results
7-(2-fluorobenzyl-aminomethyl)-8-hydroxyquinoline hydrochloride [De-Cl-Q-4]				5.22		1.72	1.431± 0.39	1.364± 0.44	1.118± 0.14	1.345± 0.27	1.260± 0.20	1.111± 0.22	1.328± 0.29	1.259± 0.29	1.282± 0.35	1.137± 0.30	1.177± 0.22	1.088± 0.23	1.344± 0.27	1.282± 0.28	pKa (NquinoliniumH+) [1]: 3.21 ± 0.04; pKa (OH) [1]: 6.42 ± 0.04; pKa (additional) ([1]; group named in the cell (NmorpholiniumH+, NpiperidiniumH+, NbenzylamineH2+)): 10.69 ± 0.04 (NbenzylamineH2^+); IC50 (MES-SA/Dx5 cells [2]; [8]): 0.34 ± 0.01 µM; IC50 (MES-SA cells [3]): 1.78 ± 0.08 µM; Fold change in fluorescence (DCFDA) (MES-SA/Dx5 cells [5]; MES-SA/Dx5, 50 µM): 1.373± 0.35; Fold change in fluorescence (DCFDA) (MES-SA/Dx5 cells [5]; [17]): 1.265± 0.27
Oc1c(CN2CCCCC2)cc(Cl)c2cccnc12 [Compound 5-Cl-Q-3]	7.16 ± 0.03	4.85 ± 0.02	0.15 ± 0.01 µM	8.40	1.3 ± 0.21 µM	1.61	1.672± 0.27	1.307± 0.51	1.861± 0.40	1.542± 0.35	1.812± 0.27	1.382± 0.67	2.075± 0.68	1.155± 0.25	1.975± 0.50	1.024± 0.19	1.954± 0.42	0.954± 0.14	2.714± 0.84	1.005± 0.21	pKa ([1]; read-out: pKa (NquinoliniumH+)): 1.61 ± 0.04; Fold change in fluorescence (DCFDA) (MES-SA/Dx5 cells [5]; MES-SA/Dx5, 50 µM): 3.077± 1.29; Fold change in fluorescence (DCFDA) (MES-SA/Dx5 cells [5]; [17]): 1.086± 0.14
Oc1ccc(Cl)c2cccnc12 [Compound 5-Cl-Q-1]			9.66 ± 2.48 µM	1.08	10.4 ± 1.71 µM	1.46	1.147± 0.32	1.668± 0.35	1.119± 0.30	1.418± 0.24	1.071± 0.35	1.443± 0.22	0.891± 0.34	1.209± 0.23	1.203± 0.32	1.279± 0.21	1.291± 0.48	1.187± 0.23	1.355± 0.46	1.220± 0.22	Fold change in fluorescence (DCFDA) (MES-SA/Dx5 cells [5]; MES-SA/Dx5, 50 µM): 1.206± 0.49; Fold change in fluorescence (DCFDA) (MES-SA/Dx5 cells [5]; [17]): 1.152± 0.06
